Results taken from patent US11364275B2, “Linear lipopeptide paenipeptins and methods of using the same” (priority 2017, dated 2022).
≈ marks a conversion by molar mass, not a printed value. Like-named read-outs stand apart in the source and are kept apart here. Where a SMILES comes first, the peptide text is derived from it. [ ]: non-standard residue; d: D form. The star is where a group is joined. Dab = NCC[C@H](N)C(=O)O; Cbz = O=C(OCc1ccccc1)*

Columns and labels:
[1] = test system: Staphylococcus aureus ATCC 29213; format: cell-based; details: S. aureus ATCC 29213; TSB
Method: (§4) The minimum inhibitory concentration (MIC) of paenipeptin analogues was determined using the broth microdilution method (Wirker, M. A. Methods for Dilution Antimicrobial Susceptibility Tests for Bacteria that Grow Aerobically: Approved Standard M07-A8; Clinical and Laboratory Standards Institute, Wayne, Pa., 2009). Seven reference strains (Acinetobacter baumannii ATCC 19606, Escherichia coli ATCC 25922, Klebsiella pneumoniae ATCC 13883, Pseudomonas aeruginosa ATCC 27853, Enterococcus faecium ATCC 19434, Staphylococcus aureus ATCC 29213 and methicillin-resistant S. aureus ATCC 43300) were subjected to MIC testing.
(§5) Paenipeptin analogues were two-fold diluted in tryptic soy broth (TSB; Becton Dickinson) and mixed with an equal volume of bacterial suspensions in TSB containing approximately 1.5×10^5 colony-forming units (CFU)/mL in a clear UV-sterilized 96-well microtiter plate (NBS, Corning Inc., Corning, N.Y.). […] The microtiter plate was incubated at 37° C. for 18-20 h.

[2] = test system: A. baumannii FDA-CDC AR 0052; details: A. baumannii AR 0052
[3] = test system: Pseudomonas aeruginosa ATCC 27853; format: cell-based; details: P. aeruginosa ATCC 27853; TSB
Method: as §4, §5

[4] = test system: Klebsiella pneumoniae ATCC 13883; format: cell-based; details: K. pneumoniae ATCC 13883; TSB
[5] = test system: Acinetobacter baumannii ATCC 19606; assay: MIC of antibiotics with or without paenipeptin analogues (potentiation); format: cell-based; details: A. baumannii ATCC 19606
Excerpt: (§1) Gram-negative bacteria, including Acinetobacter and Klebsiella, are intrinsically resistant to the hydrophobic antibiotic rifampicin.

[6] = test system: Klebsiella pneumoniae ATCC 13883; assay: as above; format: cell-based; details: K. pneumoniae ATCC 13883
Excerpt: as §1

[7] = test system: K. pneumoniae FDA-CDC AR 0080; details: K. pneumoniae AR 0080
[8] = test system: A. baumannii FDA-CDC AR 0063; assay: Time-kill kinetics in 95% human serum, alone and combined; format: cell-based, Acinetobacter baumannii; details: A. baumannii AR 0063, 24 h
Method: (§2) Bacterial viable counts were determined at 0, 2, 4, 6, and 24 h after antimicrobial treatment. Bacterial surviving counts at 24 h endpoints were subjected to analysis of variance (ANOVA) followed by Tukey's honest significant difference (HSD) tests using SPSS Statistics (version 24; SPSS, Inc., Chicago, Ill., USA).
To further test the therapeutic potential of paenipeptin analogues, the time-kill kinetics assays of paenipeptins alone or in combination with other antibiotics were performed in 95% human serum in vitro. Without antimicrobial treatment, the population of A. baumannii FDA-CDC AR 0063 increased from 5.8 log to 9.3 log within 24 h. […] (FIG. 7A).

[9] = Cytotoxicity, MTT assay; format: cell-based, human; details: human, HEK 293 cells, HEK 293, 24 h, read-out: Viability
Method: (§3) Cytotoxicity of paenipeptin analogues was determined against a human kidney cell line (HEK 293) using MTT assays (Huang E, Yousef AE. 2014. Paenibacterin, a novel broad-spectrum lipopeptide antibiotic, neutralises endotoxins and promotes survival in a murine model of Pseudomonas aeruginosa-induced sepsis. Int J Antimicrob Agents 44: 74-77). Cell viability was measured at 24 h following the addition of lipopeptides at concentrations between 30-105 μg/ml. The viability of human embryonic kidney cells (HEK 293) decreased with the increase of paenipeptin concentration. The viability of HEK 293 cells in the presence of paenipeptin analogue 1 and 15 at 105 μg/ml was 61% and 67%, respectively (Table 10). The relatively low cytotoxicity of paenipeptin analogue 1 and 15 was correlated with their low hemolytic activity against red blood cells.

[10] = test system: human kidney cell line (HEK 293); assay: Cytotoxicity, MTT assay; format: cell-based; details: HEK 293; 105 μg/ml; 24 h
Method: as §3

[11] = test system: A. baumannii FDA-CDC AR 0070; details: A. baumannii AR 0070
[12] = test system: rabbit red blood cells; assay: Hemolytic activity; format: cell-based; details: for Hemolysis: relative to Triton X-100
Method in brief: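 Washed defibrinated rabbit RBCs in PBS pH 7.2 incubated 30 min at 37 °C with paenipeptin analogues at 16–128 μg/mL final. Released hemoglobin read at 415 nm in the supernatant; % hemolysis relative to 0.1% Triton X-100.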

[13] = test system: K. pneumoniae FDA-CDC AR0097; assay: Time-kill kinetics in 95% human serum, alone and combined; format: cell-based, Klebsiella pneumoniae
Method: as §2
To further test the therapeutic potential of paenipeptin analogues, the time-kill kinetics assays of paenipeptins alone or in combination with other antibiotics were performed in 95% human serum in vitro.

[14] = test system: Escherichia coli ATCC 25922; format: cell-based; details: E. coli ATCC 25922; TSB
[15] = test system: A. baumannii FDA-CDC AR 0063; details: A. baumannii AR 0063
[16] = test system: A. baumannii FDA-CDC AR 0083; details: A. baumannii AR 0083
[17] = test system: Enterococcus faecium ATCC 19434; format: cell-based; details: E. faecium ATCC 19434; TSB
Method: as §4, §5

[18] = test system: K. pneumoniae FDA-CDC AR 0044; details: K. pneumoniae AR 0044

## CC[C@H](C)[C@H](NC(=O)[C@H](CCN)NC(=O)OCc1ccccc1)C(=O)N[C@@H](CCN)C(=O)N[C@H](Cc1ccccc1)C(=O)N[C@@H](CC(C)C)C(=O)N[C@@H](CCN)C(=O)N[C@@H](C(=O)N[C@@H](CC(C)C)C(=O)N[C@@H](CO)C(N)=O)C(C)C [Analogue 15] (Cbz-[Dab]I[Dab][dF]L[Dab][dV]LS-NH2)
[1]
  MIC: >32 µg/mL
[2]; 10% FBS
  MIC alone: <0.5 µg/mL
[2]; No FBS
  MIC alone: ≤0.5 µg/mL
[3]
  MIC: 16 µg/mL (≈ 14.2 µM)
[4]
  MIC: >32 µg/mL
[5]
  MIC of rifampicin at 2 μg/mL of paenipeptin analogue: 0.0019-0.0039 μg/ml
[6]
  MIC of rifampicin at 2 μg/mL of paenipeptin analogue: 0.0039 μg/ml
  MIC of rifampicin at 4 μg/mL of paenipeptin analogue: 0.00195-0.0039 μg/ml
[6]; MIC without / with 4 μg/mL paenipeptin
  Sensitization factor (rifampicin): 4,096-8,192
[7]
  MIC of clarithromycin at the presence of PMBN or paenipeptin analogue at 4 μg/ml: 0.0156 μg/ml
  MIC of rifampicin at the presence of PMBN or paenipeptin analogue at 4 μg/ml: 0.0313 μg/ml
[7]; 10% FBS
  MIC alone: 32 µg/mL (≈ 28.5 µM)
[7]; No FBS
  MIC alone: 32 µg/mL (≈ 28.5 µM)
[8]
  decrease of bacterial population, analogue 4 μg/ml in combination with rifampicin 4 μg/ml: 2.7 log
  log reduction, analogue 4 μg/ml in combination with clarithromycin 4 μg/ml: 0.7 log
[9]; 30 μg/ml
  viability at 24 h, 30 µg/mL: 91.4 ± 4.09%
[9]; 45 μg/ml
  viability at 24 h, 45 µg/mL: 84.3 ± 8.12%
[9]; 60 μg/ml
  viability at 24 h, 60 µg/mL: 82 ± 4.54%
[9]; 75 μg/ml
  viability at 24 h, 75 µg/mL: 73.3 ± 5.37%
[9]; 90 μg/ml
  viability at 24 h, 90 µg/mL: 67.1 ± 10%
[9]; 105 μg/ml
  viability at 24 h, 105 µg/mL: 67.5 ± 9.66%
[10]
  Viability: 67%
[11]; 10% FBS
  MIC alone: 0.5 to 1 µg/mL
[11]; No FBS
  MIC alone: ≤0.5 µg/mL
[12]; 16 μg/mL
  Hemolysis: 0.77 ± 0.15%
[12]; 32 μg/mL
  Hemolysis: 0.41 ± 0.67%
[12]; 64 μg/mL
  Hemolysis: 0.54 ± 0.70%
[12]; 128 μg/mL
  hemolytic activity (in words): nonhemolytic
  Hemolysis: 0.65 ± 0.29%
[13]; 24 h
  log reduction, analogue 4 μg/ml in combination with rifampicin 4 μg/ml: 4.6 log
[13]; within 24 h
  log inactivation, single agent at 4 μg/ml: didn't show bactericidal activity
[14]
  MIC: 8 to 16 µg/mL
[15]; 10% FBS
  MIC alone: 2 µg/mL (≈ 1.78 µM)
[15]; No FBS
  MIC alone: 0.5 to 4 µg/mL
[16]
  MIC of clarithromycin at the presence of PMBN or paenipeptin analogue at 4 μg/ml: 1-4 μg/ml
  MIC of rifampicin at the presence of PMBN or paenipeptin analogue at 4 μg/ml: 0.0313-0.0625 μg/ml
[16]; 10% FBS
  MIC alone: 4 to 8 µg/mL
[16]; No FBS
  MIC alone: 8 to 16 µg/mL
[17]
  MIC: >32 µg/mL
[18]
  MIC of clarithromycin at the presence of PMBN or paenipeptin analogue at 4 μg/ml: 0.0078-0.0156 μg/ml
  MIC of rifampicin at the presence of PMBN or paenipeptin analogue at 4 μg/ml: ≤0.0019 μg/ml
[18]; 10% FBS
  MIC alone: 16 to 32 µg/mL
[18]; No FBS
  MIC alone: 32 µg/mL (≈ 28.5 µM)
